Laboratory results: patent US8580769B2, “Treatment of obesity, metabolic syndrome, and diabetes with protein kinase C inhibitors” (The United States of America as represented by the …, priority 2011, dated 2013)

Tests used:
Akt2 = molecular target: T1, Akt2 (Mus musculus, UniProt Q60823); assay: tissue Akt activity in Het-MλKO mice; type: in vivo; details: for Akt activation in adipose tissue / Akt activation in muscle: 7-day treatment s.c. (ATM 60 mg/kg; ICAPP 0.4 mg/kg)
T1 construct: from tissue; host or cells: mouse liver, quadriceps muscle and abdominal adipose tissue
T1 sequence (Q60823 whole entry): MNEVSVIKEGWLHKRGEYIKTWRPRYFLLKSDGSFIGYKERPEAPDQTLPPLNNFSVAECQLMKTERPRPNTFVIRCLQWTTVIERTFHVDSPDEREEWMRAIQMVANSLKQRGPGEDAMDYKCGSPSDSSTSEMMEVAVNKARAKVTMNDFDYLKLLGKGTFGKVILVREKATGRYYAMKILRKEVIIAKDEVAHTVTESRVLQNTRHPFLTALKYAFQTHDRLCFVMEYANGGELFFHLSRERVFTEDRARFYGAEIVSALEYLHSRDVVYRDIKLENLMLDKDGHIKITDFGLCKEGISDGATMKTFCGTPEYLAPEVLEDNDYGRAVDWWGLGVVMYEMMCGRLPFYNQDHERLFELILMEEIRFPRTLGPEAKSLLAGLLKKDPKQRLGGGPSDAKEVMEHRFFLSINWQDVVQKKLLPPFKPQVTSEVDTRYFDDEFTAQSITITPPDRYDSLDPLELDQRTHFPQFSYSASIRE
Source text: (§1) In Vivo Mouse Studies: Male wild type (WT) and heterozygous muscle-specific PKC-λ knockout (Het-MλKO) mice were generated as described (Farese et al., J. Clin. Invest. 117:2289-2301, 2007) and used at 6-12 months of age, when the O/MS/T2DM phenotype in MλKO mice is well-developed. Mice were housed in a temperature-controlled environment with alternating 12-hour light and dark cycles, and fed ad libitum with standard chow (Harlan Teklad 20/18 with 5% fat, (10% of calories from fat)). All experimental procedures in mice were approved by the Institutional Animal Care and Use Committees of the Roskamp Institute and the University of South Florida College of Medicine, and the James A. Haley Veterans Administration Medical Center Research and Development Committee, Tampa, Fla.
(§2) (ICAPP; prepared by Southern Research, Birmingham, Ala.) at 0.4 mg/kg body weight. On the morning of the eighth day of inhibitor treatment, mice were injected intraperitoneally (IP) with 0.9% saline or saline containing 1 U insulin/kg body weight 15 minutes before sacrifice, an optimal time for studies of insulin stimulation of aPKC and Akt in liver, muscle and adipose tissues (Standaert et al., J. Biol. Chem. 279:24929-24934, 2004; Sajan et al., J. Lipid Res. 50:1133-1145, 2009; Sajan et al., Diabetologia 52:1197-1207, 2009; Farese et al., J. Clin. Invest. 117:2289-2301, 2007). After killing, blood, liver, quadriceps muscle and abdominal adipose tissues were rapidly removed and homogenized in buffer with a POLYTRON® homogenizer.
(§3) Tissue and Immunoprecipitate Preparations: As previously described (Standaert et al., J. Biol. Chem. 279:24929-24934, 2004; Sajan et al., J. Lipid Res. 50:1133-1145, 2009; Sajan et al., Diabetologia 52:1197-1207, 2009; Farese et al., J. Clin. Invest. 117:2289-2301, 2007) hepatocytes and tissues from in vivo experiments were homogenized in ice-cold buffer containing 0.25 M sucrose, 20 mM Tris/HCl (pH 7.5), 2 mM EGTA, 2 mM EDTA, 1 mM phenylmethylsulfonyl fluoride (PMSF), 20 μg/ml leupeptin, 10 μg/ml aprotinin, 2 mM Na4P2O7, 2 mM Na3VO4, 2 mM NaF, and 1 μM microcystin. After centrifugation for 10 minutes at 700×g to remove unbroken cells, debris, nuclei, and floating fat, cell lysates were stored at −70° C. After addition of 1% TRITON® X-100, 0.6% Nonidet and 150 mM NaCl, lysates were cleared of insoluble materials by low-speed centrifugation and subsequently immunoprecipitated with antibodies that target: (a) aPKCs (rabbit polyclonal antiserum from Santa Cruz Biotechnologies (Santa Cruz, Calif.) that recognizes C-termini of both PKC-λ and PKC-ζ); and (b) Akt2 (Upstate Cell Signaling/Millipore, Billerica, Mass.). Immunoprecipitates were collected on Sepharose-AG beads (Santa Cruz Biotechnologies).
Akt2 Assay: Akt2 enzyme activity was measured with a kit obtained from Upstate Cell Signaling, as described (Standaert et al., J. Biol. Chem. 279:24929-24934, 2004; Sajan et al., J. Lipid Res. 50:1133-1145, 2009; Sajan et al., Diabetologia 52:1197-1207, 2009; Farese et al., J. Clin. Invest. 117:2289-2301, 2007). In brief, Akt2 was immunoprecipitated from lysates with rabbit polyclonal antibodies, collected on Sepharose-AG beads, and incubated as per kit directions. Akt1/2 activation was also assessed by immunoblotting for phosphorylation of serine-473.

Het-MλKO mice = assay: clinical parameters in Het-MλKO mice (model of obesity/metabolic syndrome/T2DM); type: in vivo, mouse; details: for hepatic triglycerides / resting (basal) serum insulin levels: 7-day treatment s.c. (ATM 60 mg/kg; ICAPP 0.4 mg/kg); for serum glucose levels following acute insulin treatment: insulin 1 U/kg i.p.; for basal serum glucose levels (before insulin): s.c. once daily (ICAPP 0.4 mg/kg; ICAP 0.5 mg/kg)
Source text: as §1, §2
Measurements of Serum Triglycerides, Cholesterol, Free Fatty Acids, Insulin and Glucose: Serum triglycerides, cholesterol, free fatty acids, insulin and glucose levels were measured as previously described (Sajan et al., J. Lipid Res. 50:1133-1145, 2009; Sajan et al., Diabetologia 52:1197-1207, 2009; Farese et al., J. Clin. Invest. 117:2289-2301, 2007).
Both aPKC inhibitors were tested in a murine model of O/MS/T2DM, a heterozygous muscle-specific PKC-λ knockout (Het-MλKO) mice, wherein defective insulin-stimulated glucose transport in muscle leads to glucose intolerance, systemic insulin resistance, hyperinsulinemia, increased hepatic aPKC activity, activation of hepatic SREBP-1c and IKKβ/NFκB, and thus to increased expression of hepatic enzymes engaged in lipogenesis and cytokine production, and ultimately to hepatosteatosis, abdominal obesity, hypertriglyceridemia, fatty acidemia, hypercholesterolemia, hyperinsulinemia, glucose intolerance, fasting hyperglycemia, and diminished glucose-lowering effects of acutely administered insulin (Sajan et al., J. Lipid Res. 50:1133-1145, 2009; Farese et al., J. Clin. Invest. 117:2289-2301, 2007).

aPKC = assay: tissue aPKC activity in Het-MλKO mice; type: in vivo, mouse; details: for aPKC activation in adipose tissue / aPKC activation in muscle: 7-day treatment s.c. (ATM 60 mg/kg; ICAPP 0.4 mg/kg)
Source text: as §1, §2, §3
aPKCι Assays: aPKC enzyme activity was measured as previously described (Standaert et al., J. Biol. Chem. 279:24929-24934, 2004; Sajan et al., J. Lipid Res. 50:1133-1145, 2009; Sajan et al., Diabetologia 52:1197-1207, 2009; Farese et al., J. Clin. Invest. 117:2289-2301, 2007). […] After incubation, ^32P-labeled substrate was trapped on P-81 filter paper and counted. This assay reflects the specific activity of a constant amount of aPKC (even in Het-MλKO mice) that is immunoprecipitated by supplier-prescribed amounts of antiserum (Farese et al., J. Clin. Invest. 117:2289-2301, 2007; Beeson et al., Diabetes 52:1926-1934, 2003).

[1] = Het-MλKO mice, s.c. once daily (ATM 60 mg/kg; ICAPP 0.4 mg/kg; ICAP 0.5 mg/kg)
[2] = Het-MλKO mice, s.c. once daily (ICAPP 0.4 mg/kg 7 days; ICAP 0.5 mg/kg 8 days)
[3] = ICAP-treated Mλ-Het KO mice (n = 12), 0.5 mg/kg body weight/day x 8 days s.c., mean ± SEM

Compound	Akt activation in adipose tissue (Akt2; Het-MλKO mice)	Akt activation in muscle (Akt2; Het-MλKO mice)	hepatic triglycerides (Het-MλKO mice; Het-MλKO mice)	resting (basal) serum insulin levels (Het-MλKO mice; Het-MλKO mice)	abdominal fat content (Het-MλKO mice; [1])	serum cholesterol (Het-MλKO mice; [1])	serum triglycerides (Het-MλKO mice; [1])	serum glucose levels following acute insulin treatment (Het-MλKO mice; [1])	basal serum glucose levels (before insulin) (Het-MλKO mice; Het-MλKO mice)	aPKC activation in adipose tissue (aPKC; Het-MλKO mice)	aPKC activation in muscle (aPKC; Het-MλKO mice)	hepatic aPKC activity (aPKC; [2])	also measured
NC(=O)c1ncn([C@@H]2C[C@H](COP(=O)(O)O)[C@@H](O)[C@H]2O)c1N [ICAPP, 1H-imidazole-4-carboxamide, 5-amino-1-[2,3-dihydroxy-4-[(phosphonooxy)methyl]cyclopentyl]-[1R-(1α,2β,3β,4α)]]	increased significantly or trended upward	increased significantly or trended upward	marked improvements	marked improvements	marked improvements	marked improvements	marked improvements	marked improvements	marked improvements	increased significantly or trended upward	increased significantly or trended upward	diminished	serum free fatty acids (Het-MλKO mice; Het-MλKO mice, ICAPP 0.4 mg/kg/day s.c., 7 days): marked improvements; food intake (Het-MλKO mice; Het-MλKO mice, ICAPP-treated): not altered
NC(=O)c1ncn([C@@H]2C[C@H](CO)[C@@H](O)[C@H]2O)c1N [ICAP, 1H-imidazole-4-carboxamide 5-amino-1-[2,3-dihydroxy-4-[hydroxymethyl]cyclopentyl]-[1R-(1α,2β,3β,4α)]]					diminished	diminished	diminished	diminished	diminished			inhibited	Hepatic Akt activity (Akt2; [3]): 1151 ± 226 cpm/immunoppt; Abdominal fat (Het-MλKO mice; [3]): 26 ± 3.2 mg/g body weight; Ad lib-fed serum glucose (Het-MλKO mice; [3]): 139 ± 20 mg/dL; serum cholesterol (Het-MλKO mice; [3]): 108 ± 10 mg/dL; serum triglycerides (Het-MλKO mice; [3]): 104 ± 7 mg/dL; hepatic aPKC activity (aPKC; [3]): 1374 ± 128 cpm/immunoppt
O=C([O-])CC([S][Au])C(=O)[O-] (stereo not shown) [ATM, aurothiomalate, reference compound]	increased or trended upward	increased or trended upward	decreased, virtually to normal	decreased, virtually to normal	decreased, virtually to normal	decreased, virtually to normal	decreased, virtually to normal	decreased, virtually to normal		increased significantly	increased significantly		Akt activation/activity in liver (Akt2; [1]): increased or trended upward
